# Test results taken from DBAASP.
# What was measured:
# Assay in all cases: ≥ marks a high value that may be exact or a test limit, other limits are often not marked, values filed in µg/mL are converted to µM
# [1] = test system: Enterococcus faecalis ATCC 29212
# [2] = test system: Staphylococcus aureus ATCC 6538
# [3] = test system: Pseudomonas aeruginosa ATCC 15442
# [4] = test system: Staphylococcus epidermidis ATCC 35984
# [5] = test system: Staphylococcus aureus ATCC 25923
# [6] = test system: Staphylococcus aureus ATCC 29213
# Escherichia coli UB1005 = test system: Escherichia coli UB1005
# Candida albicans = test system: Candida albicans
# [7] = test system: Salmonella enterica serovar Typhimurium
# [8] = test system: Staphylococcus epidermidis
# [9] = test system: Pseudomonas aeruginosa H103
# [10] = test system: Staphylococcus epidermidis ATCC 12228
# Escherichia coli K88 = test system: Escherichia coli K88
# [11] = test system: Escherichia coli CVCC 1515
# [12] = test system: Pseudomonas aeruginosa ATCC 27853
# [13] = test system: Salmonella enterica subsp. enterica serovar Typhimurium ATCC 14028
# Escherichia coli = test system: Escherichia coli
# Bacillus cereus = test system: Bacillus cereus
# Streptococcus uberis = test system: Streptococcus uberis
# Staphylococcus aureus = test system: Staphylococcus aureus
# Enterococcus faecalis = test system: Enterococcus faecalis
# Leuconostoc lactis = test system: Leuconostoc lactis
# Micrococcus luteus = test system: Micrococcus luteus
# Listeria innocua = test system: Listeria innocua
# Pasteurella multocida = test system: Pasteurella multocida
# Micrococcus luteus A270 = test system: Micrococcus luteus A270
# [14] = test system: Staphylococcus aureus ATCC 33591
# [15] = test system: Bacillus subtilis ATCC 23857
# [16] = test system: Escherichia coli ATCC 25922
# [17] = test system: Staphylococcus aureus USA 300
# Bacillus subtilis 168 = test system: Bacillus subtilis 168
# Escherichia coli B = test system: Escherichia coli B
# Pseudomonas aeruginosa = test system: Pseudomonas aeruginosa
# [18] = test system: Micrococcus luteus CCM 144
# [19] = test system: Staphylococcus aureus ATCC 43300
# [20] = test system: Candida albicans F7-39/IDE99
structure (smiles),measurement,setting,value
CC(C)C[C@H](NC(=O)[C@H](C)NC(=O)[C@H](Cc1cnc[nH]1)NC(=O)[C@H](Cc1cnc[nH]1)NC(=O)CNC(=O)[C@H](CC(C)C)NC(=O)[C@@H](N)Cc1cnc[nH]1)C(=O)N[C@@H](CC(=O)O)C(=O)N[C@@H](Cc1cnc[nH]1)C(=O)N[C@@H](CC(C)C)C(=O)N[C@@H](CC(C)C)C(=O)N[C@@H](CCCCN)C(=O)O [HLGHHALDHLLK],MIC,[1],> 8990 µM
same,MIC,[2],8990 µM
same,MIC,[3],≥ 8990 µM
same,MIC,[4],≥ 8990 µM
same,MIC,[5],8990 µM
same,MIC,[6],> 8990 µM
CC[C@H](C)[C@H](NC(=O)[C@@H](N)CCCN=C(N)N)C(=O)N[C@@H](CCCN=C(N)N)C(=O)N[C@@H](CCCN=C(N)N)C(=O)N[C@@H](Cc1c[nH]c2ccccc12)C(=O)N[C@@H](CCCCN)C(=O)N[C@@H](Cc1ccccc1)C(=O)N[C@@H](CCCN=C(N)N)C(=O)N[C@@H](Cc1c[nH]c2ccccc12)C(=O)O [RIRRWKFRW],MIC,[1],5.3 µM
same,MIC,Escherichia coli UB1005,5.3 µM
same,MIC,Candida albicans,21.3 µM
same,MIC,[5],1.3 µM
same,MIC,[7],5.3 µM
same,MIC,[8],1.3 µM
same,MIC,[9],≥ 42.6 µM
CC(C)C[C@H](NC(=O)[C@H](Cc1c[nH]c2ccccc12)NC(=O)[C@H](CCCCN)NC(=O)[C@H](C)NC(=O)[C@H](C)NC(=O)[C@H](C)NC(=O)[C@H](CCCCN)NC(=O)[C@H](C)NC(=O)[C@H](C)NC(=O)[C@H](C)NC(=O)[C@H](CCCCN)NC(=O)[C@H](Cc1c[nH]c2ccccc12)NC(=O)[C@@H](N)CC(C)C)C(N)=O [LWKAAAKAAAKWL],MIC,[10],16 µM
same,MIC,Escherichia coli UB1005,8 µM
same,MIC,Escherichia coli K88,4 µM
same,MIC,[11],8 µM
same,MIC,[12],16 µM
same,MIC,[13],64 µM
CC[C@H](C)[C@H](NC(=O)[C@H](C)NC(=O)[C@H](CCC(=O)O)NC(=O)[C@H](Cc1cnc[nH]1)NC(=O)[C@@H](N)Cc1ccccc1)C(=O)N[C@@H](C)C(=O)N1CCC[C@H]1C(=O)N[C@H](C(=O)N[C@H](C(=O)N[C@@H](Cc1cnc[nH]1)C(=O)N[C@@H](C)C(=O)N[C@@H](C)C(=O)N[C@H](C(=O)N[C@@H](CCCCN)C(=O)N[C@@H](C)C(=O)N[C@@H](CC(C)C)C(=O)N[C@H](C(=O)NCC(=O)N[C@@H](Cc1ccccc1)C(=O)N[C@@H](CC(C)C)C(=O)NCC(N)=O)C(C)C)C(C)C)C(C)C)C(C)C [FHEAIAPVVHAAVKALVGFLG],MIC,Escherichia coli,> 46.6 µM
same,MIC,Bacillus cereus,≥ 46.6 µM
same,MIC,Streptococcus uberis,≥ 46.6 µM
same,MIC,Staphylococcus aureus,> 46.6 µM
same,MIC,Enterococcus faecalis,≥ 46.6 µM
same,MIC,Leuconostoc lactis,23.3 µM
same,MIC,Micrococcus luteus,≥ 46.6 µM
same,MIC,[8],≥ 46.6 µM
same,MIC,Listeria innocua,≥ 46.6 µM
same,MIC,Pasteurella multocida,≥ 46.6 µM
CC(C)C[C@H](NC(=O)[C@H](CO)NC(=O)[C@H](Cc1cnc[nH]1)NC(=O)[C@H](CO)NC(=O)[C@H](CC(C)C)NC(=O)[C@H](CC(C)C)NC(=O)[C@@H](N)CCCCN)C(=O)O [KLLSHSL],MIC,Micrococcus luteus A270,≥ 39.2 µM
same,MIC,Escherichia coli,78.4 µM
same,MIC,Listeria innocua,≥ 39.2 µM
CC(C)C[C@H](NC(=O)[C@@H](N)Cc1ccccc1)C(=O)N[C@@H](CCCCN)C(=O)N[C@@H](CCCCN)C(=O)N[C@@H](C)C(=O)N[C@@H](CCCCN)C(=O)N[C@@H](CCCCN)C(=O)N[C@@H](Cc1ccccc1)C(=O)NCC(=O)N[C@@H](CCCCN)C(=O)N[C@@H](C)C(=O)N[C@@H](Cc1ccccc1)C(N)=O [FLKKAKKFGKAF],MIC,[4],≥ 181 µM
same,MIC,[5],> 362 µM
same,MIC,[14],≥ 362 µM
same,MIC,[12],45.3 µM
CC[C@H](C)[C@H](NC(=O)CNC(=O)[C@@H](N)CCSC)C(=O)N[C@H](C(=O)N[C@@H](C)C(=O)NCC(=O)N[C@H](C(=O)N[C@H](C(=O)N[C@@H](CCCCN)C(=O)N[C@H](C(=O)N[C@H](C(=O)N[C@@H](CCCCN)C(=O)N[C@@H](CO)C(=O)N[C@@H](CC(C)C)C(=O)N[C@H](C(=O)N[C@@H](CCC(=O)O)C(=O)N[C@@H](CCC(N)=O)C(=O)N[C@@H](Cc1ccccc1)C(=O)N[C@H](C(=O)NCC(=O)N[C@@H](CCCCN)C(=O)O)[C@@H](C)O)[C@@H](C)CC)[C@@H](C)CC)C(C)C)[C@@H](C)CC)[C@@H](C)CC)[C@@H](C)CC [MGIIAGIIKVIKSLIEQFTGK],MIC,[4],≥ 64 µM
same,MIC,[15],≥ 128 µM
same,MIC,[16],> 128 µM
same,MIC,[17],≥ 64 µM
CC[C@H](C)[C@H](NC(=O)CN)C(=O)N[C@@H](CCSC)C(=O)N[C@@H](CO)C(=O)N[C@@H](CO)C(=O)N[C@@H](CC(C)C)C(=O)N[C@@H](CCSC)C(=O)N[C@@H](CCCCN)C(=O)N[C@@H](CCCCN)C(=O)N[C@@H](CC(C)C)C(=O)N[C@@H](CCCCN)C(=O)N[C@@H](CCCCN)C(=O)N[C@@H](Cc1cnc[nH]1)C(=O)N[C@H](C(=O)N[C@@H](C)C(=O)N[C@@H](CCCCN)C(N)=O)[C@@H](C)CC [GIMSSLMKKLKKHIAK],MIC,Bacillus subtilis 168,7 µM
same,MIC,Escherichia coli B,26 µM
same,MIC,Pseudomonas aeruginosa,17 µM
same,MIC,Staphylococcus aureus,> 100 µM
same,MIC,[18],3 µM
same,MIC,[19],> 100 µM
same,MIC,[8],10 µM
same,MIC,[12],6.4 µM
same,MIC,[20],12 µM
CC(C)C[C@H](NC(=O)[C@@H](N)CCCN=C(N)N)C(=O)N[C@@H](Cc1c[nH]c2ccccc12)C(=O)N[C@@H](Cc1c[nH]c2ccccc12)C(=O)N[C@@H](Cc1c[nH]c2ccccc12)C(=O)N[C@@H](Cc1c[nH]c2ccccc12)C(=O)N[C@@H](CCCN=C(N)N)C(=O)N[C@@H](CCCN=C(N)N)C(=O)N[C@@H](CCCCN)C(=O)O [RLWWWWRRK],MIC,[1],4.1 µM
same,MIC,Escherichia coli UB1005,4.1 µM
same,MIC,Candida albicans,4.1 µM
same,MIC,[5],2.1 µM
same,MIC,[7],8.3 µM
same,MIC,[8],0.5 µM
same,MIC,[9],16.6 µM
CC(C)C[C@H](NC(=O)[C@H](CCCCN)NC(=O)[C@H](C)NC(=O)[C@H](C)NC(=O)[C@H](C)NC(=O)[C@H](CCCCN)NC(=O)[C@H](C)NC(=O)[C@H](C)NC(=O)[C@H](C)NC(=O)[C@H](CCCCN)NC(=O)[C@H](CC(C)C)NC(=O)[C@@H](N)Cc1c[nH]c2ccccc12)C(=O)N[C@@H](Cc1c[nH]c2ccccc12)C(N)=O [WLKAAAKAAAKLW],MIC,[10],8 µM
same,MIC,Escherichia coli UB1005,4 µM
same,MIC,Escherichia coli K88,2 µM
same,MIC,[11],4 µM
same,MIC,[12],16 µM
same,MIC,[13],8 µM
